Tests used:
[1] = target: T1, estrogen receptor binding to an estrogen response element (Homo sapiens, UniProt P03372); test: Inhibition of estrogen receptor binding to an estrogen response element in DNA mobility shift assays; assay type: biochemical, human (nuclear extract of MCF-7 human breast cancer cells)
T1 construct: estrogen receptor extracted from MCF-7 human breast tumor cells; endogenous in cells; host or cells: MCF-7 human breast cancer cells (nuclear extract, cytosol or whole cell extract)
T1 sequence (P03372 1-595): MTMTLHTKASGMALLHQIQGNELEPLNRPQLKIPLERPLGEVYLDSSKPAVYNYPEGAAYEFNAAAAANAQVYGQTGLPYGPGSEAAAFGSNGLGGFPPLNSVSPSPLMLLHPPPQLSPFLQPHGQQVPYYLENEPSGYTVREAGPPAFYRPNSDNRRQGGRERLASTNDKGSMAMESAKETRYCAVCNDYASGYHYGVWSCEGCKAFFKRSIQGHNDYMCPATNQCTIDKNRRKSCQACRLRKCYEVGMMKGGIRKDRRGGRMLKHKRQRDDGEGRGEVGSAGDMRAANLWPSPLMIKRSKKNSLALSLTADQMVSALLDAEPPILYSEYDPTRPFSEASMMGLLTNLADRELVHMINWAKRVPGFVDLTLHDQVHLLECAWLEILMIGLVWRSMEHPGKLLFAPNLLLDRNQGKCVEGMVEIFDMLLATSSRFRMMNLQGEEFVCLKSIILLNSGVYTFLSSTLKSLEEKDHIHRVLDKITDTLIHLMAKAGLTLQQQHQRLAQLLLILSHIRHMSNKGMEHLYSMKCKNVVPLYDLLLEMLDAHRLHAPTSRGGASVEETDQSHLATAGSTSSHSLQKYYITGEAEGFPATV
Description: Monolayers of MCF-7 human breast cancer cells are rinsed once with HBSS and scraped off culture dishes into 15 ml conical tubes with 5 ml HBSS. The cells are sedimented by centrifugation at 250×g for five minutes, suspended in 1 ml HBSS and sedimented by centrifugation at 2000 rpm in a tabletop centrifuge for five minutes in a 1.5 ml microfuge tube. Two PCV of a solution of a lysis buffer (25 mM HEPES, pH 7.8, 50 mM KCl, 0.5% Nonidet P 40, 2 mM dithiothreitol, 0.2 mM phenylmethylsulfonyl fluoride, 0.05 mg/ml leupeptin, 0.05 mg/ml aprotinin, 0.0025 mg/ml pepstatin, 0.005 mg/ml antipain) are added and cells are kept on ice for 15 minutes. Lysed cells are centrifuged for 3 minutes at 10,000×g, supernatant decanted, and kept as the cytosol fraction. Pellets are suspended in two PCV of extraction buffer (25 mM HEPES, pH 7.8, 500 mM KCl, 10% glycerol, 2 mM dithiothreitol and the above protease inhibitors), mixed for 20 minutes by inversion at 4 degrees C. and centrifuged at 10,000×g for 20 minutes. The supernatant is decanted and saved as nuclear extract. Both the nuclear extract and the cytosol are dialyzed for two hours against dialysis buffer (25 mM HEPES, pH 7.8, 50 mM KCl, 10% glycerol, 2 mM dithiothreitol and the above protease inhibitors). Nuclear and cytosol fractions are stored frozen at -80 degrees C. until used for mobility shift assays or determination of estrogen receptor content.
Briefly, to each reaction tube was added 0.01 mg nuclear extract, 2 μg poly dIdC, 50 mM NaCl, 1 mM dithiothreitol and 10 mM Tris, pH 7.5 in a total volume of 0.01 ml and the mixture was kept at room temperature for 10 minutes. A ^32 P-labelled estrogen response element [ERE]

[2] = tested on: MCF-7 human breast tumor cells; test: Clonigenic assay for MCF-7 human breast tumor cells; assay type: cell-based; conditions: for Colonies ± S.D.: 24 hours treatment, grown 22 days
Description: MCF-7 cells (10^7) are added to 100 mm tissue culture dishes, allowed to adhere for 24 hours and then treated with either MDL 101,906 or ICI 164,384 for 24 hours. The cells are removed from the dishes with trypsin/EDTA, and washed twice by centrifugation. The cells were counted and 500 cells from each treatment group are added to triplicate wells of 6-well culture dishes. The cells are grown for 22 days. Colonies 1 mm diameter or greater are counted.

[3] = read-out: integrated volume of shifted ERE oligo as percentage of control, given as % inhibition

Structure (SMILES): CCCCN(C)C(=O)CCCCCCCNC(=O)Cc1c(C)n(C(=O)c2ccc(Cl)cc2)c2ccc(O)cc12 [MDL 101,906, 8-[[5-Hydroxy-1-(4-chlorobenzoyl)-2-methyl-1H-indol-3-yl]-acetylamino]-octanoic acid methyl-butyl-amide]
- IC50 [1]: 8.5 µM
- inhibition at 2 µM [1, 3]: 81%
- inhibition at 5 µM [1, 3]: 76%
- inhibition at 10 µM [1, 3]: 46%
- inhibition at 20 µM [1, 3]: 38%
- Colonies ± S.D. ([2]; 10 μM): 30 ± 10
- Colonies ± S.D. ([2]; 20 μM): 27 ± 5
- Colonies ± S.D. ([2]; 50 μM): 12 ± 2
- activity at 10 µM ([2]; Homo sapiens, MCF7, 528 h, 10 μM, read-out: Colonies, % Control): 91%
- activity at 20 µM ([2]; Homo sapiens, MCF7, 528 h, 20 μM, read-out: Colonies, % Control): 82%
- activity at 50 µM ([2]; Homo sapiens, MCF7, 528 h, 50 μM, read-out: Colonies, % Control): 36%
